Laboratory results published in patent US11059787B2, “Crystalline form of lenvatinib mesylate and methods thereof” (Shenzhen Bolan Pharmaceutical Co., LTD., priority 2019, dated 2021).

Tests used:
[1] = Solubility in water with 1% polyvinyl alcohol; type: physicochemical; conditions: solids added until not completely dissolved, in suspension for 5 hours, methanesulfonate
Description: The solubility of Form XI was measured as compared to the previously reported Form A and Form C in U.S. Pat. No. 7,612,208. Form XI, Form A and Form C solids were gradually added into water with 1% polyvinyl alcohol until the solids could not dissolve completely and stay in suspension for 5 hours.

[2] = Storage stability of the crystalline form for 15 days, compared by XRPD; type: physicochemical; conditions: stored 15 days at 8° C., 25° C., 25° C./92.5% RH, 25° C./4500 LUX and 40° C./75% RH; XRPD comparison
Description: The stability of Form XI was measured after being stored for 15 days under the following conditions: 8° C., 25° C., 25° C./92.5% RH, 25° C./4500 LUX and 40° C./75% RH.

in vivo = conditions: BALB/c, mouse, po

| Solubility [1] | Stability under storage conditions [2] | AUC(0-inf) (in vivo) | Cmax (in vivo) | Tmax (in vivo) | bioavailability (in vivo) | half-life (in vivo) | Compound |
| --- | --- | --- | --- | --- | --- | --- | --- |
| 11.75 mg/mL | – | – | – | – | – | – | COc1cc2nccc(Oc3ccc(NC(=O)NC4CC4)c(Cl)c3)c2cc1C(N)=O.CS(=O)(=O)O [Form A, 4-(3-chloro-4-(cyclopropylaminocarbonyl)aminophenoxy)-7-methoxy-6-quinolinecarboxamide methanesulfonate] |
| 16.175 mg/mL | – | – | – | – | – | – | COc1cc2nccc(Oc3ccc(NC(=O)NC4CC4)c(Cl)c3)c2cc1C(N)=O.CS(=O)(=O)O [Form C, 4-(3-chloro-4-(cyclopropylaminocarbonyl)aminophenoxy)-7-methoxy-6-quinolinecarboxamide methanesulfonate] |
| 26.65 mg/mL | stable | 38900 ± 11100 ng·h/mL | 11500 ± 2920 ng/mL | 0.833 h | 109% | 1.95 ± 0.04 h | COc1cc2nccc(Oc3ccc(NC(=O)NC4CC4)c(Cl)c3)c2cc1C(N)=O.CS(=O)(=O)O [Form XI, 4-(3-chloro-4-(cyclopropylaminocarbonyl)aminophenoxy)-7-methoxy-6-quinolinecarboxamide methanesulfonate] |
